This is an account of results in patent US11103605B2, “PET-imaging immunomodulators” (BRISTOL-MYERS SQUIBB COMPANY, priority 2016, dated 2021).

Molecules are shown by their SMILES.

One data set concerns the target T1, PD-L1 (Homo sapiens, UniProt Q9NZQ7).
T1 construct: Human lung tumor tissues were embedded in OCT and chilled in 2-methylbutane; from tissue; host or cells: human non-small cell lung cancer biopsy sections; L2987 (hPD-L1+) and HT-29 (hPD-L1-) human xenograft sections grown in mice
In words: In vitro autoradiography on human lung tumor and xenograft tissue sections. Format: binding. The following applies: 0.25 nM radiotracer, unlabelled peptide 0.1 nM, 1 nM, 10 nM. The method, then:
Human lung tumor tissues were embedded in OCT and chilled in 2-methylbutane for 2-5 minutes until frozen. Samples were stored in −80° C. degree freezer until use. Human xenograft tissues were also included in the assay. […] Once resulting xenograft tumors reached appropriate size (approx. 200-300 mm^3), mice were anesthetized with 2% isoflurane and sacrificed via cervical dislocation. Fresh tumor tissues were excised, immersed into OCT and chilled in 2-methylbutane for 2-5 minutes until frozen. The tissues were then wrapped in foil/ZIPLOC® bag and stored at −80° C. until use. For all tissues (human lung tumor and xenografts) sections of 5 μm thickness (collected as 2 sections/slide) were cut using a cryostat, thaw-mounted on glass microscope slides, and allowed to air dry for approximately 30 minutes. Blocking studies with cold (unlabelled) peptide at 0.1 nM, 1 nM, and 10 nM respectively. The individual slides, 1 slide per concentration, were transferred to glass slide incubation chambers for incubation. […] Autoradiography signals from tissue-associated radioactivity were quantified from these ROIs. The apparent displacement of the [^18F]labelled macrocyclic PD-L1 peptide radiotracer when compared to the total binding sections was determined for 3 different concentrations (0.1 nM, 1 nM, and 10 nM) of unlabeled peptide in both human lung tumor sections as well as human xenograft sections. […]
Background: In xenograft studies the graft and the host belong to different species.

A short description of data set [1]: PET imaging in non-human primate, baseline and blocking study. As to conditions: male, cynomolgus monkey, iv, total radioactivity. Here is the method: Cynomolgus male monkeys with a previously installed vascular access port (VAP) were anesthetized with 0.02 mg/kg atropine, 5 mg/kg Telazol and 0.01 mg/kg buprenorphine I.M. (all drawn into a single syringe). An i.v. catheter is then placed in the cephalic vessel for fluid administration during the imaging procedure to maintain hydration. Animals were intubated with an endotracheal tube—usually 3.0 mm and transferred to the imaging bed of a microPET® F220TM PET instrument (Siemens Preclinical Solutions, Knoxville, Tenn.). Anesthesia was maintained with isoflurane and oxygen and I.V. fluids (LRS) were administered at a rate of 6 ml/kg/hr during the imaging procedure. As the axial field of view of the microPET® F220™ instrument is only 7.6 cm, images over 5 distinct bed positions were acquired to create a composite image of the animals from just above the heart through approximately the pelvis.
For each field of view, a 10 minute transmission image was first acquired using a ^57Co point source for the purpose of attenuation correction of the final PET images. Once transmission images were acquired for all bed positions, approximately 1.7 mCi (approximately 0.12 μg/kg) of the [^18F]labelled macrocyclic PD-L1 peptide radiotracer was administered via the installed VAP. 5 minute duration emission scans were then sequentially acquired for each bed position, beginning at position 1 centered approximately at the heart and moving toward the pelvis of the animal. Once images were acquired at each position (1 through 5), the imaging bed was moved back to bed position 1 and the process was repeated. Using this procedure, a total of 5 distinct images were acquired for each bed position over the duration of the imaging study.
Individual images were reconstructed using a filtered back projection (FBP) algorithm with attenuation correction using the collected transmission images and corrected for radioisotope decay. Final composite images were then produced by aligning images from all 5 bed positions obtained from a single pass (i.e. a single composite image was produced from each set of sequential images from bed positions 1 through 5) covering the duration of the imaging study. […] To determine the nature of the specific binding in the cynomolgus monkey spleen a blocking study was conducted in the following manner.
The cynomolgus monkey (4.4 kg, male) received a single IV injection of [^18F]labelled macrocyclic PD-L1 peptide radiotracer (˜1.7 mCi, mass: 0.21 μg/kg) at baseline. On the following day (post-dose), the same NHP received a single SC dose of 2 mg/kg anti-PD-L1 binding macrocyclic peptide at 2 hours before radiotracer injection (˜1.7 mCi, mass: 0.12 μg/kg).

T1 sequence (Q9NZQ7 19-290): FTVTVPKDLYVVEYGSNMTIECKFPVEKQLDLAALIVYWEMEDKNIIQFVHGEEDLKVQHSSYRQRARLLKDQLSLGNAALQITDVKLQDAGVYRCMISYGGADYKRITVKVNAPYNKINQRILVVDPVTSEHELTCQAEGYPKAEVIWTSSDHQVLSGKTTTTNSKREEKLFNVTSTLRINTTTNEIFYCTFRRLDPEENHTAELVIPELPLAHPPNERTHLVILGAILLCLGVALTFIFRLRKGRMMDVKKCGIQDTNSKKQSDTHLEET

As to `CCCC[C@H]1C(=O)N(C)[C@@H](CCCC)C(=O)N[C@@H](CC(C)C)C(=O)N[C@H](C(=O)NCC(=O)N[C@@H](Cc2cn(CCOCCOCCOCCOc3cccnc3[18F])nn2)C(=O)O)CSCC(=O)N[C@@H](Cc2ccc(O)cc2)C(=O)N(C)[C@@H](C)C(=O)N[C@@H](CC(N)=O)C(=O)N2CCC[C@H]2C(=O)N[C@@H](CN)C(=O)N[C@@H](CC(C)C)C(=O)N2C[C@H](O)C[C@H]2C(=O)N[C@@H](Cc2c[nH]c3ccccc23)C(=O)N[C@@H](CCN)C(=O)N[C@@H](Cc2cn(CC(=O)O)c3ccccc23)C(=O)N1C` [[^18F]labelled macrocyclic PD-L1 peptide], the “displacement of radiotracer by unlabelled peptide” value on PD-L1 was “dose dependent displacement”. In addition, the SUV was found to be 8.84 SUV in data set [1] (duodenum, 0.21 ug/kg); 8.76 SUV in data set [1] (duodenum, 2 mg/kg); 2.78 SUV in data set [1] (gallbladder, 0.21 ug/kg); 1.13 SUV in data set [1] (gallbladder, 2 mg/kg); 8.42 SUV in data set [1] (kidney cortex, 0.21 ug/kg); 10.8 SUV in data set [1] (kidney cortex, 2 mg/kg). Moreover, the SUV in data set [1] (kidney pelvis, 0.21 ug/kg) is 8.86 SUV; in data set [1] (kidney pelvis, 2 mg/kg), 24.1 SUV; in data set [1] (liver, 0.21 ug/kg), 9.16 SUV; in data set [1] (liver, 2 mg/kg), 3.17 SUV; in data set [1] (lung, 0.21 ug/kg), 1.86 SUV; in data set [1] (lung, 2 mg/kg), 0.793 SUV. Moreover, the SUV was determined as 0.521 SUV in data set [1] (muscle, 0.21 ug/kg); 0.341 SUV in data set [1] (muscle, 2 mg/kg); 19.7 SUV in data set [1] (spleen, 0.21 ug/kg); 1.42 SUV in data set [1] (spleen, 2 mg/kg); 1.99 SUV in data set [1] (thymus, 0.21 ug/kg); 0.931 SUV in data set [1] (thymus, 2 mg/kg).
